One block for each compound: values may come before it.
What was measured:
[1] = test system: MH 134 cell (ascitic liver cancer cell) tumor-bearing mice; conditions: female, C3H/He, mouse, in vivo, po
Procedure: A mouse tumor-bearing cell (MH 134 cell: ascitic liver cancer cell) was intraperitoneally administered to mice (C3H/He line, 5-week-old, female) at a dose of 1×10^6 cells, and they were reared for 0 to 14 days. Ten days after the intraperitoneal administration of tumor-bearing cells, 50 μl of 0.12 M δ-aminolevulinic acid hydrochloride, δ-aminolevulinic acid methyl ester hydrochloride, δ-aminolevulinic acid hexyl ester hydrochloride or δ-aminolevulinic acid phosphate was orally administered to the mice to which the tumor-bearing cells had been intraperitoneally administered. From 10 to 20 μl of blood samples were collected from the orally administered mice 0, 0.25, 0.5, 2, 3, 4 or 6 hours thereafter. The thus collected blood was centrifuged at 2000×g for 5 minutes, 300 μl of ethyl acetate/acetic acid (2/1, v/v) was added to 5 μl of the supernatant (plasma), followed by mixing, 300 μl of 0.6 M NaOH solution was further added thereto, followed by mixing, and the NaOH layer was collected. To the remaining organic layer, 300 μl of 0.5 M aqueous hydrochloric acid solution was added, and the aqueous hydrochloric acid solution layer was collected. Fluorescence intensities of the NaOH layer and aqueous hydrochloric acid solution layer were measured (hydrochloric acid layer: excitation wavelength 400 nm, fluorescence wavelength 600 nm, NaOH layer: excitation wavelength 400 nm, fluorescence wavelength 619 nm), and respective concentrations were calculated from the standard solutions. In addition, δ-aminolevulinic acid hydrochloride, δ-aminolevulinic acid methyl ester hydrochloride, δ-aminolevulinic acid hexyl ester hydrochloride or δ-aminolevulinic acid phosphate was also orally administered (0.12 M, 50 μl) to normal mice as the control, and the same treatment was carried out.

normal mice [2] = assay: Blood protoporphyrin IX and uroporphyrin by fluorescence detection after oral administration, normal mice (Example 1); type: in vivo; conditions: 2 hours after oral 50 μl of 0.12 M
[3] = test system: MH 134 cell tumor-bearing mice; assay: Uroporphyrin I and III in blood by HPLC, tumor-bearing mice (Example 2); type: in vivo, mice (C3H/He line); conditions: 2 hours after oral 50 μl of 0.12 M
Procedure: (§1) The samples were measured by HPLC (regarding the analyzing conditions, a fluorescence detector: excitation wavelength 406 nm, fluorescence wavelength 610 nm was used, a solution consisting of 12.5% acetonitrile, 1 M ammonium acetate and 0.27 mM EDTA, pH 5.15 (adjusted with acetic acid), was used as the eluting solution, ODS-AGtypeCAPCELLPAK, 4.6 mmφ×250 mm, particle diameter 5 μm (manufactured by Shiseido) was used as the column, and the measurement was carried out at a flow rate of 1.0 ml/min and at a temperature of 25° C.), and respective concentrations were calculated from the peak areas of standard solutions.

[4] = test system: MH 134 cell tumor-bearing mice; assay: Uroporphyrin I and III in urine by HPLC, tumor-bearing mice (Example 3); type: in vivo, mice (C3H/He line)
Procedure: as §1, with “The thus collected” for “The”, “619” for “610”, “the” for “the peak areas of”

normal mice [5] = assay: Uroporphyrin I and III in urine by HPLC, normal mice (Example 3); type: in vivo; conditions: 2 hours after oral 50 μl of 0.12 M
Procedure: as §1, with “The thus collected” for “The”, “619” for “610”, “the” for “the peak areas of”

[6] = test system: MH 134 cell tumor-bearing mice; assay: Uroporphyrin and coproporphyrin in feces by HPLC, tumor-bearing mice (Example 4); type: in vivo, mice (C3H/He line); conditions: 2 hours after oral 50 μl of 0.12 M
Procedure: To 10 mg in wet weight portion of the thus collected feces, 100 μl of an ethyl acetate-acetic acid mixture liquid (4/1, v/v) was added, the mixture was homogenized and then filtered using a filter paper, 10 μl of the filtrate was measured by HPLC (regarding the analyzing conditions, a fluorescence detector: excitation wavelength 406 nm, fluorescence wavelength 619 nm was used, a solution A: 80% acetonitrile/7% acetic acid/50 mM ammonium acetate mixture liquid and a solution B: 10% acetonitrile/4% acetic acid/50 mM ammonium acetate mixture liquid were used as the eluting solutions and subjected to a linear gradient of A/B (20/80)-A/B (90/10) for 30 minutes and then to the holding with solution A for 20 minutes, ODS-AGtypeCAPCELLPAK, 4.6 mmφ×250 mm, particle diameter 5 μm (manufactured by Shiseido) was used as the column, and the measurement was carried out at a flow rate of 1.0 ml/min and at a temperature of 25° C.), and respective concentrations were calculated from the peak areas of standard solutions.

normal nude mice = assay: Uroporphyrin and coproporphyrin in urine by HPLC, normal nude mice (Example 5); type: in vivo; conditions: 4 hours after oral 50 μl of 0.12 M, corrected per creatinine
Procedure: (§2) The thus collected urine was measured by HPLC (regarding the analyzing conditions, a fluorescence detector: excitation wavelength 406 nm, fluorescence wavelength 619 nm was used,
(§3) A: 80% acetonitrile/7% acetic acid/50 mM ammonium acetate and
(§4) B: 10% acetonitrile/4% acetic acid/50 mM ammonium acetate were used as the eluting solutions and subjected to a linear gradient of A/B (20/80)-A/B (90/10) for 13 minutes and then to elution with solution A for 10 minutes, ODS-AGtypeCAPCELLPAK, 4.6 mm×250 mm, particle diameter 5 μm (manufactured by Shiseido) was used as the column, and the measurement was carried out at a flow rate of 1.0 ml/min and at a temperature of 25° C.), and each concentration was calculated from the standard solutions. Further, the urine concentration was corrected by measuring the amount of creatinine (CRE) in urine, and calculating the amount of porphyrin per CRE.

[7] = test system: human liver cancer cell (HepG2 cell) tumor-bearing nude mice; assay: Uroporphyrin and coproporphyrin in urine by HPLC, nude mice bearing human liver cancer cells (Example 5); type: in vivo, nude mice (BALB/cA-nu)
Procedure: as §2, §3, §4

[8] = test system: human cervical cancer cell (HeLa cell) tumor-bearing nude mice; assay: Uroporphyrin and coproporphyrin in urine by HPLC, nude mice bearing human cervical cancer cells (Example 5); type: in vivo, nude mice (BALB/cA-nu)
Procedure: as §2, §3, §4

[9] = tumor-bearing mice, 2 hours after oral 50 μl of 0.12 M
[10] = mice given human liver cancer cells, after administration
[11] = tumor-bearing mice (human liver cancer cell), 4 hours after oral 50 μl of 0.12 M, corrected per creatinine
[12] = mice given human cervical cancer cells, after administration
[13] = tumor-bearing mice (human cervical cancer cell), 4 hours after oral 50 μl of 0.12 M, corrected per creatinine

time after administration at which concentrations of protoporphyrin IX and uroporphyrin became maximum [1]: 2 h
SMILES: COC(=O)CCC(=O)CN.Cl [δ-aminolevulinic acid methyl ester hydrochloride]
uroporphyrin in blood of normal mice (normal mice [2]): hardly detected

SMILES: Cl.NCC(=O)CCC(=O)O [δ-aminolevulinic acid hydrochloride]
time after administration at which concentrations of protoporphyrin IX and uroporphyrin became maximum [1]: 2 h | uroporphyrin in blood of normal mice (normal mice [2]): hardly detected | Ratio of uroporphyrin I/uroporphyrin III in blood [3]: 0.53 | Uroporphyrin I in blood, after administration [3]: 0.2 ng/µL | Uroporphyrin III in blood, after administration [3]: 0.38 ng/µL | amounts of uroporphyrin I and uroporphyrin III in urine, tumor-bearing mice in comparison with normal mice ([4]; after administration, urine 2 hours): about 13 times | Ratio of uroporphyrin I/uroporphyrin III in urine [4, 9]: 0.54 | Uroporphyrin I in urine, after administration [4, 9]: 11.95 ng/µL | Uroporphyrin III in urine, after administration [4, 9]: 22.28 ng/µL | Ratio of uroporphyrin I/uroporphyrin III in urine (normal mice [5]): 0.94 | Uroporphyrin I in urine, after administration (normal mice [5]): 0.95 ng/µL | Uroporphyrin III in urine, after administration (normal mice [5]): 1.01 ng/µL | Coproporphyrin in feces, after administration [6]: 0.21 pmol | Uroporphyrin in feces, after administration [6]: 1.75 pmol

SMILES: NCC(=O)CCC(=O)O.O=P(O)(O)O [δ-aminolevulinic acid phosphate]
time after administration at which concentrations of protoporphyrin IX and uroporphyrin became maximum [1]: 2 h | uroporphyrin in blood of normal mice (normal mice [2]): hardly detected | Coproporphyrin in urine, after administration (normal nude mice): 0.99 μmol/g-CRE | Uroporphyrin in urine, after administration (normal nude mice): 0.16 μmol/g-CRE | amount of coproporphyrin in urine relative to normal mice [7, 10]: about 1.5 times | amount of uroporphyrin in urine relative to normal mice [7, 10]: about 15 times | Coproporphyrin in urine, after administration [7, 11]: 1.44 μmol/g-CRE | Uroporphyrin in urine, after administration [7, 11]: 2.47 μmol/g-CRE | amount of coproporphyrin in urine relative to normal mice [8, 12]: about 2.7 times | amount of uroporphyrin in urine relative to normal mice [8, 12]: about 94 times | Coproporphyrin in urine, after administration [8, 13]: 2.66 μmol/g-CRE | Uroporphyrin in urine, after administration [8, 13]: 15.1 μmol/g-CRE

time after administration at which concentrations of protoporphyrin IX and uroporphyrin became maximum [1]: 2 h
SMILES: CCCCCCOC(=O)CCC(=O)CN.Cl [δ-aminolevulinic acid hexyl ester hydrochloride]
uroporphyrin in blood of normal mice (normal mice [2]): hardly detected

From patent publication US9340490B2, “Diagnostic agent for tumor” (SBI PHARMACEUTICALS CO., LTD., priority 2004, dated 2016)
